Laboratory results published in patent US20030134335A1, “Method for reducing the immunogenicity of heterologous proteins by elimination of t-cell epitopes” (priority 1999, published 2003).

Experiments:
[1] = system: SakSTAR specific T-cell clones (CD3+, CD4+); assay: Functional T-cell assay: proliferation (BrdU) of SakSTAR-specific T-cell clones with APC and antigen/peptide; assay type: cell-based, human; conditions: for immunogenic / functional T-cell epitope by T-cell clone specificity: over 100 SakSTAR specific T-cell clones, SakSTAR-derived peptides; for proliferation of region(71-87)-specific T-cell clones: positive if at least three times the background
Excerpt: For the cloning of SakSTAR-specific T-cell clones, approximately 15×10^6 PBMC from each donor were stimulated with an optimal concentration of SakSTAR for 7-9 days. The visible T-cell clones were harvested under the microscope, and individually re-stimulated in a 96-well flat-bottom plate with autologous PBMC as antigen presenting cells (APC). These wells were supplemented on day 1 with 20U/ml recombinant human interleukin-2 (IL-2) (Boehringer Mannheim, Mannheim, Germany) and allowed to grow for 8-11 days. Re-stimulation was repeated every 8-11 days under the same conditions. After 3 to 6 passages, autologous PBMC were replaced by autologous Epstein Barr Virus (EBV)-immortalized B-cell lines as antigen presenting cells.
To identify immunogenic regions on the SakSTAR molecule, the isolated T-cell clones were tested for their specificity using SakSTAR-derived peptides. In total 25 peptides 17 residues in length, each overlapping 12 residues were synthesized using a fluorenylmethoxy-carbonyl-protected amino acid coupling procedure (Hiemstra et al., 1997). Each individual T-cell clone was tested for its specificity by co-culturing T-cells, Mitomycin C-treated autologous EBV-B-cells and antigen or the appropriate peptide for 4 days. Subsequently, the T-cell clones were pulsed for 24 hours with BrdU, harvested and analyzed for their BrdU content.

PBMC = assay: Proliferation (stimulation index) of SakSTAR-myc-primed PBMC re-stimulated with antigen/peptides; assay type: cell-based, human; conditions: for cellular immune response (stimulation index) of SakSTAR-myc primed PBMC: PBMC from 10 region(71-87)-immunoreactive donors, value exceeding 3 positive
Excerpt: However, the vast majority of humans does also recognize additional immunogenic SakSTAR regions (untouched in these SakSTAR-variants), which would invalidate such an experiment. Therefore, 25 other healthy donors were screened for SakSTAR immunoreactivity. PBMC were thawed, washed four times in 1% human serum albumin, and cultured at 1.8×10^6 cells/ml in RPMI 1640 supplemented with 5%. human serum (Biowitthaker, Walkersville, Md.) and gentamycin with or without SakSTAR-myc for 10 days in a humidified CO2 incubator. The non-adherent cells were harvested and restimulated with no antigen, SakSTAR-myc or different peptides. For antigen presenting cells, irradiated autologous PBMC were T-cell depleted, using CD3-M450 Dynabeads (Dynal, Compiégne, France) according manufacturer procedures (FACS analysis indicated >95% non-T-cells). The plates were incubated at 37° C. under humidified atmosphere containing 5% CO2 for 5 days, and pulsed with BrdU for the last 22 to 24 hours.
Subsequently, the cells were harvested and analyzed for their BrdU content (BrdU ELISA, Boehringer Mannheim, Mannheim, Germany). A stimulation index was calculated, by dividing the OD obtained from the PBMC in response to an antigen/peptide by that of the spontaneous proliferation (no antigen) control. A value exceeding 3 was considered positive, indicating the proliferation of specific T-cells to that particular antigen/peptide.

In the case of HYVEFPIKPGT [43-HYVEFPIKPGT-53], the “immunogenic / functional T-cell epitope by T-cell clone specificity” value (shortened to “immunogenic / functional T-cell epitope”) [1] is reported as “no T-cell clones were isolated”.

In the case of “TAYKEFAVVALDPSAKI [double (R77A, E80A), multiple mutation(71-87) peptide]”, the “cellular immune response (stimulation index) of SakSTAR-myc primed PBMC” value (PBMC) is reported as “none of the tested donors showed a positive cellular immune response”.

“TAYKEFAVVALAPSAKI [triple (R77A, E80A, D82A), multiple mutation(71-87) peptide]” was tested, and the “cellular immune response (stimulation index) of SakSTAR-myc primed PBMC” value (PBMC) was “none of the tested donors showed a positive cellular immune response”.

For “EFRVVELDPSA [S2, 11-mer peptide, SakSTAR residues 75-85]”, the “immunogenic / functional T-cell epitope” value [1] was “functional T-cell epitopes” and the “proliferation of region(71-87)-specific T-cell clones” value [1] was “Tc-7 to Tc-10 recognize the S2 peptide”.

For “TAYAAFAVVALAPSAKI [quintuple (K74A, E75A, R77A, E80A, D82A), multiple mutation(71-87) peptide]”, the “cellular immune response (stimulation index) of SakSTAR-myc primed PBMC” value (PBMC) was “none of the tested donors showed a positive cellular immune response”.

“TAYKEFRVVELDPSAKI [71-TAYKEFRVVELDPSAKI-87, wild type SakSTAR(71-87) 17-mer peptide]” was tested, and the “SakSTAR positive donors with a cellular immune response to the peptide” value (PBMC; 20 identified SakSTAR positive donors, stimulation index exceeding 3 positive) was 80% and the “donors from which isolated T-cell clones were stimulated by the peptide” value ([1]; T-cell clones from 10 healthy donors) was 9 of 10.

“AYKEFRVVELD [S1, 11-mer peptide, SakSTAR residues 72-82]” was tested, and the “immunogenic / functional T-cell epitope” value [1] was “functional T-cell epitopes” and the “proliferation of region(71-87)-specific T-cell clones” value [1] was “clones Tc-1 to Tc-6 proliferated”.

“TAYQEFSVVSLSPSAKI [quadruple (K74Q, R77S, E80S, D82S), multiple mutation(71-87) peptide]” was tested, and the “cellular immune response (stimulation index) of SakSTAR-myc primed PBMC” value (PBMC) was “none of the tested donors showed a positive cellular immune response”.

With TYYDKNKKKEE [90-TYYDKNKKKEE-100] the “immunogenic / functional T-cell epitope” value [1] was “no T-cell clones were isolated”.
